Measured values from patent US11484529B2, “Desmethylanethole trithione derivatives for the treatment of diseases linked to mitochondrial reactive oxygen species (ROS) production” (OP2 Drugs, priority 2017, dated 2022).

Assays:
site IIIQO = molecular target: T1, site IIIQO (Rattus norvegicus, UniProt P00159+P20788); assay: Mitochondrial ROS/H2O2 production (Amplex Red/HRP) after rotenone, antimycin A, myxothiazol; type: biochemical; details: AOL 5 to 80 μM
T1 construct: from tissue; host or cells: mitochondria isolated from rat heart
Protocol: Rates of ROS/H2O2 production from heart mitochondria were assessed through the oxidation of the colorless, non-fluorescent indicator Amplex Red in the presence of exogenous horseradish peroxidase (HRP, EC 1.11.1.7, Sigma). H2O2 reacts with Amplex Red in a 1:1 stoichiometry, yielding the fluorescent compound resorufin (excitation: 560 nm; emission: 585 nm) which is stable once formed. Fluorescence was measured continuously with a spectro-fluorometer equipped with temperature control and stirring (SAFAS Xenius, Monaco). Isolated mitochondria (0.1 mg/mL) were incubated in the same experimental buffer than previously, supplemented with 15 μM Amplex Red and 10 μg/mL HRP. Glutamate (5 mM)/malate (2.5 mM) together with succinate (5 mM) were used as complex I and complex II substrates, respectively. Experiments were conducted under non-phosphorylating conditions in the presence of 15 μM atractyloside, i.e., under state IV conditions where mitochondrial membrane is maximal. […]
Rates of ROS/H2O2 production from heart mitochondria were assessed through the oxidation of the colorless, non-fluorescent indicator Amplex Red in the presence of exogenous horseradish peroxidase (HRP, EC 1.11.1.7, Sigma). […] Fluorescence was measured continuously with a spectro-fluorometer equipped with temperature control and stirring (SAFAS Xenius, Monaco). […]

MPTP-treated mice = assay: Sub-chronic MPTP mouse model of Parkinson's disease, TH-positive neurons in the substantia nigra; type: in vivo; details: AOL 5 mg/kg i.p., 11 consecutive days; p<0.01
Protocol: In this study, the potential neuroprotective effects of AOL were assessed by counting the number of tyrosine hydroxylase (TH)-positive neurons in the substantia nigra (SN) in the sub-chronic 1-methyl-4-phenyl-1,2,3,6-tetrahydropyridine (MPTP) mouse model of Parkinson's disease. Mice were treated with AOL (5 mg/kg; i.p.) or vehicle for 11 consecutive days. MPTP (20 mg/kg; i.p.) or saline was administered on treatment days 4-8. All mice were killed on day 12 following final administration of treatment.
For vehicle conditions, the test item was dissolved in 0.5% DMSO/0.95% Tween 20 in saline while AOL was administered intraperitoneally (i.p.) at the dose of 5 mg/kg. […]
Unbiased stereological analysis was used to estimate the number of TH-immunopositive (TH+) neurons (Mercator, Explora Nova, La Rochelle, France). The boundaries of the SN were determined by examining the size and shape of the different TH+ neuronal groups. The volume was calculated by using the formula: V=ΣS td; where ΣS is the sum of surface areas, t is the average section thickness and d is the number of slices between two consecutive sections measured. […] The following formula was used to estimate the number of TH+ neurons: N=V(SN) (ΣQ−/ΣV(dis)); where N is the estimation of cell number, V is the volume of the SN, ΣQ− is the number of cells counted in the dissectors, and ΣV(dis) is the total volume of all the dissectors. […]

T1 sequence (P00159 whole entry): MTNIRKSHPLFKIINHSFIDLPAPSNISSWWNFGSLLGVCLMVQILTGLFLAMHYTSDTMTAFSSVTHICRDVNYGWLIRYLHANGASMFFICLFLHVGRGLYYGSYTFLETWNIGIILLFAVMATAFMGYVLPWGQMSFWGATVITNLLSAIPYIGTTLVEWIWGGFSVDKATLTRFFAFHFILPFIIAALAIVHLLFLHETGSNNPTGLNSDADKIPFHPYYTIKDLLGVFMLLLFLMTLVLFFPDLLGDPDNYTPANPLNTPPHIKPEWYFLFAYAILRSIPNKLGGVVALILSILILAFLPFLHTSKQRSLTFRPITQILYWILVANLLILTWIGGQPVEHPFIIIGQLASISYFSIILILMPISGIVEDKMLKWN
T1 sequence (P20788 79-274 limits assumed): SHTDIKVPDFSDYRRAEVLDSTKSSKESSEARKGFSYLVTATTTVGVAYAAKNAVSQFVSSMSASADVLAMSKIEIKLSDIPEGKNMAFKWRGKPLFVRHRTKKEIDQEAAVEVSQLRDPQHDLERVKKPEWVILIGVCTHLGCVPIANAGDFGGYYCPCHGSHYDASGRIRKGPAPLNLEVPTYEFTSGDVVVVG
T1 sequence (P20788 1-78 partner limits assumed): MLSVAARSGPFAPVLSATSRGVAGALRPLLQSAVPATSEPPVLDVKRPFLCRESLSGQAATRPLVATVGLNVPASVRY
T1 sequence (Q68FY0 35-480 partner): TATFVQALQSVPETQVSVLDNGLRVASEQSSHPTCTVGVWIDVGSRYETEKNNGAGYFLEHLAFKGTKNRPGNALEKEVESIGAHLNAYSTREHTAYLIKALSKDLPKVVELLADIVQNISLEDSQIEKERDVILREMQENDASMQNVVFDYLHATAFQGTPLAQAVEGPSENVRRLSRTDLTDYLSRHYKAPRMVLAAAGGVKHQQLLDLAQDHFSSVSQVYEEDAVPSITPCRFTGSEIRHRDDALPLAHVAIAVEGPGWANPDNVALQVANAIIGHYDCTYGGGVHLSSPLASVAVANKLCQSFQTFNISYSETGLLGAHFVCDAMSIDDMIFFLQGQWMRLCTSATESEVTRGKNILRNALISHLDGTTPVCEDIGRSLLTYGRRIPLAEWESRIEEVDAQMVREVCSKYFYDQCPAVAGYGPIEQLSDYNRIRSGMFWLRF
T1 sequence (P32551 15-452 partner): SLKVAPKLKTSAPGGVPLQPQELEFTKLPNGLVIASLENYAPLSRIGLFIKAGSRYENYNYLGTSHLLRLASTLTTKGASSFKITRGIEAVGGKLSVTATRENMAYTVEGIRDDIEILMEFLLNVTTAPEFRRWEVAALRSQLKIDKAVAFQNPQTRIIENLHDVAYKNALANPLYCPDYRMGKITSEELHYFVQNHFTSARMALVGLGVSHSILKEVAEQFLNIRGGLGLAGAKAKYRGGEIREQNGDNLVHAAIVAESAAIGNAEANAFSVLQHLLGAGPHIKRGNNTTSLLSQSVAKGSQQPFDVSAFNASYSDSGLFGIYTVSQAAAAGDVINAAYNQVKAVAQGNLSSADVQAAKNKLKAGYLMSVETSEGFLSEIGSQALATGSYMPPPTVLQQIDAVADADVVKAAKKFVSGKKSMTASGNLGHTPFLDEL

Question: How did the “effect on ROS/H2O2 production under the other conditions” value (site IIIQO) turn out when `COc1ccc(-c2cc(=S)ss2)cc1` [AOL, 5-(4-methoxyphenyl)-3H-1,2-dithiole-3-thione] was run?
Answer: no statistical differences were observed

Question: What about the “increase of the number of TH+ cells in the SN compared to vehicle in MPTP-treated mice” value (MPTP-treated mice) of the same molecule?
Answer: 44%
